A short description of the data set: activity coefficient (dimensionless); of the first substance listed, at infinite dilution; xn = mol fraction of the nth substance listed. The note with it: 101.33 kPa, Liquid, Chromatography, x1 = 0.

Structures are written as SMILES. Numbers after ± are expanded uncertainties.

As for `Cc1ccccc1C` [1,2-dimethylbenzene] + CCCCCCCCn1cc[n+](C)c1C.O=S(=O)([N-]S(=O)(=O)C(F)(F)F)C(F)(F)F, the activity coefficient by setting is: (313.15 K) 1.15 ± 0.12; (323.15 K) 1.08 ± 0.11; (333.15 K) 1.02 ± 0.1; (343.15 K) 0.96 ± 0.1; (353.15 K) 0.93 ± 0.09.
On the same counts, the results for `Cc1cccc(C)c1` [1,3-dimethylbenzene] + CCCCCCCCn1cc[n+](C)c1C.O=S(=O)([N-]S(=O)(=O)C(F)(F)F)C(F)(F)F are 1.18 ± 0.12, 1.14 ± 0.12, 1.1 ± 0.11, 1.04 ± 0.11 and 1.01 ± 0.1.
On the same counts, the results for `Cc1ccc(C)cc1` [1,4-dimethylbenzene] + CCCCCCCCn1cc[n+](C)c1C.O=S(=O)([N-]S(=O)(=O)C(F)(F)F)C(F)(F)F are 1.17 ± 0.12, 1.11 ± 0.11, 1.06 ± 0.11, 1 ± 0.1 and 0.95 ± 0.1.
Take `C1COCCO1` [1,4-dioxane] + CCCCCCCCn1cc[n+](C)c1C.O=S(=O)([N-]S(=O)(=O)C(F)(F)F)C(F)(F)F: the activity coefficient by setting is: (313.15 K) 0.64 ± 0.07; (323.15 K) 0.56 ± 0.06; (333.15 K) 0.51 ± 0.06; (343.15 K) 0.47 ± 0.05; (353.15 K) 0.42 ± 0.05.
As to `CC(C)CO` [2-methyl-1-propanol] + CCCCCCCCn1cc[n+](C)c1C.O=S(=O)([N-]S(=O)(=O)C(F)(F)F)C(F)(F)F, the activity coefficient reads like this: (313.15 K) 2.21 ± 0.23; (323.15 K) 1.88 ± 0.2; (333.15 K) 1.6 ± 0.17; (343.15 K) 1.39 ± 0.14; (353.15 K) 1.21 ± 0.12.
On the same counts, the results for `CC(C)CCO` [3-methylbutan-1-ol] + CCCCCCCCn1cc[n+](C)c1C.O=S(=O)([N-]S(=O)(=O)C(F)(F)F)C(F)(F)F are 2.46 ± 0.26, 2.11 ± 0.22, 1.79 ± 0.19, 1.55 ± 0.16 and 1.32 ± 0.14.
On the same counts, the results for `CC(C)=O` [acetone] + CCCCCCCCn1cc[n+](C)c1C.O=S(=O)([N-]S(=O)(=O)C(F)(F)F)C(F)(F)F are 0.46 ± 0.05, 0.41 ± 0.05, 0.37 ± 0.04, 0.34 ± 0.04 and 0.31 ± 0.04.
For `CC#N` [acetonitrile] + CCCCCCCCn1cc[n+](C)c1C.O=S(=O)([N-]S(=O)(=O)C(F)(F)F)C(F)(F)F the same measures were 0.51 ± 0.06, 0.45 ± 0.05, 0.4 ± 0.05, 0.37 ± 0.04 and 0.34 ± 0.04.
On to `c1ccccc1` [benzene] + CCCCCCCCn1cc[n+](C)c1C.O=S(=O)([N-]S(=O)(=O)C(F)(F)F)C(F)(F)F, for which the activity coefficient stood at 0.81 ± 0.08 (313.15 K); 0.74 ± 0.08 (323.15 K); 0.68 ± 0.07 (333.15 K); 0.63 ± 0.07 (343.15 K); 0.59 ± 0.06 (353.15 K).
Take `CCCCO` [butan-1-ol] + CCCCCCCCn1cc[n+](C)c1C.O=S(=O)([N-]S(=O)(=O)C(F)(F)F)C(F)(F)F: the activity coefficient (313.15 K) was determined as 2.31 ± 0.24; the activity coefficient (323.15 K) came to 1.96 ± 0.21; the activity coefficient (333.15 K) is 1.7 ± 0.18; the activity coefficient (343.15 K) turned out to be 1.46 ± 0.15; the activity coefficient (353.15 K) was 1.27 ± 0.13.
For `CCC(C)O` (stereo not given) [butan-2-ol] + CCCCCCCCn1cc[n+](C)c1C.O=S(=O)([N-]S(=O)(=O)C(F)(F)F)C(F)(F)F the same measures were 2.03 ± 0.21, 1.74 ± 0.18, 1.5 ± 0.16, 1.29 ± 0.13 and 1.11 ± 0.11.
On the same counts, the results for `C1CCCCC1` [cyclohexane] + CCCCCCCCn1cc[n+](C)c1C.O=S(=O)([N-]S(=O)(=O)C(F)(F)F)C(F)(F)F are 4.76 ± 0.5, 4.16 ± 0.44, 3.75 ± 0.39, 3.37 ± 0.35 and 3.12 ± 0.33.
As to `C1=CCCCC1` [cyclohexene] + CCCCCCCCn1cc[n+](C)c1C.O=S(=O)([N-]S(=O)(=O)C(F)(F)F)C(F)(F)F, the activity coefficient by setting is: (313.15 K) 3.04 ± 0.32; (323.15 K) 2.77 ± 0.29; (333.15 K) 2.5 ± 0.26; (343.15 K) 2.28 ± 0.24; (353.15 K) 2.1 ± 0.22.
Consider `CCCCCCCCCC` [decane] + CCCCCCCCn1cc[n+](C)c1C.O=S(=O)([N-]S(=O)(=O)C(F)(F)F)C(F)(F)F, for which the activity coefficient reads like this: (313.15 K) 20.8 ± 2.2; (323.15 K) 16.4 ± 1.7; (333.15 K) 13.5 ± 1.4; (343.15 K) 11.2 ± 1.2; (353.15 K) 9.33 ± 0.98.
For `ClCCl` [dichloromethane] + CCCCCCCCn1cc[n+](C)c1C.O=S(=O)([N-]S(=O)(=O)C(F)(F)F)C(F)(F)F the same measures were 0.82 ± 0.08, 0.75 ± 0.08, 0.68 ± 0.07, 0.64 ± 0.07 and 0.58 ± 0.06.
On to `CCO` [ethanol] + CCCCCCCCn1cc[n+](C)c1C.O=S(=O)([N-]S(=O)(=O)C(F)(F)F)C(F)(F)F, for which the activity coefficient runs as follows: (313.15 K) 1.7 ± 0.18; (323.15 K) 1.49 ± 0.15; (333.15 K) 1.31 ± 0.13; (343.15 K) 1.15 ± 0.12; (353.15 K) 1.01 ± 0.1.
`CCOC(C)=O` [ethyl acetate] + CCCCCCCCn1cc[n+](C)c1C.O=S(=O)([N-]S(=O)(=O)C(F)(F)F)C(F)(F)F: the activity coefficient runs as follows: (313.15 K) 0.74 ± 0.08; (323.15 K) 0.67 ± 0.07; (333.15 K) 0.61 ± 0.07; (343.15 K) 0.57 ± 0.06; (353.15 K) 0.52 ± 0.06.
For `CCc1ccccc1` [ethylbenzene] + CCCCCCCCn1cc[n+](C)c1C.O=S(=O)([N-]S(=O)(=O)C(F)(F)F)C(F)(F)F, the activity coefficient (313.15 K) was 1.37 ± 0.14; the activity coefficient (323.15 K) stood at 1.29 ± 0.13; the activity coefficient (333.15 K) worked out at 1.2 ± 0.12; the activity coefficient (343.15 K) came to 1.14 ± 0.12; the activity coefficient (353.15 K) was determined as 1.08 ± 0.11.
With `CCCCCCC` [heptane] + CCCCCCCCn1cc[n+](C)c1C.O=S(=O)([N-]S(=O)(=O)C(F)(F)F)C(F)(F)F, the activity coefficient by setting is: (313.15 K) 8.82 ± 0.93; (323.15 K) 7.77 ± 0.82; (333.15 K) 6.89 ± 0.72; (343.15 K) 6.29 ± 0.66; (353.15 K) 5.69 ± 0.6.
Consider `C=CCCCC` [hex-1-ene] + CCCCCCCCn1cc[n+](C)c1C.O=S(=O)([N-]S(=O)(=O)C(F)(F)F)C(F)(F)F, for which the activity coefficient is, setting by setting: (313.15 K) 4.99 ± 0.52; (323.15 K) 4.26 ± 0.45; (333.15 K) 3.65 ± 0.38; (343.15 K) 3.18 ± 0.33; (353.15 K) 2.81 ± 0.3.
For `CCCCCC` [hexane] + CCCCCCCCn1cc[n+](C)c1C.O=S(=O)([N-]S(=O)(=O)C(F)(F)F)C(F)(F)F the same measures were 7.89 ± 0.83, 6.52 ± 0.69, 5.57 ± 0.59, 4.87 ± 0.51 and 4.22 ± 0.44.

The values above are taken from the NIST ThermoML archive (doi:10.1016/j.jct.2017.12.012).
